Article PMC9413440, “An Iterative Approach Guides Discovery of the FabI Inhibitor Fabimycin, a Late-Stage Antibiotic Candidate with In Vivo Efficacy against Drug-Resistant Gram-Negative Infections” (ACS Central Science, 2022)

System: E. coli MG1655
Assay: Whole-cell accumulation assay (LC-MS/MS)
Type: cell-based, Escherichia coli
Experimental: II. Materials and Methods for Biological Experiments
S. aureus ATCC 29213 and E. coli MG1655 were obtained from the American Type Culture Collection (ATCC). E. coli BW25113 and E. coli JW5503 were obtained from the Keio Collection. AR-bank strains were obtained from the Centers for Disease Control and Prevention and FDA Antibiotic Resistance Isolate Bank. […]
The accumulation assay4 was performed in triplicate with each batch containing tetracycline as a positive control. E. coli MG1655 was used in these experiments. For each replicate, 2.5 mL of an overnight culture of E. coli was diluted into 250 mL of fresh Luria Bertani (LB) broth (Lennox) and grown at 37 °C with shaking to an optical density (OD600) of 0.55. The bacteria were pelleted at 3220 r.c.f. for 10 min at 4 °C and the supernatant was discarded. The pellets were resuspended in 40 mL of phosphate buffered saline (PBS) and pelleted as before, and the supernatant discarded. […] The number of colony-forming units (CFUs) was determined by a calibration curve. […] Supernatants were analyzed by LC-MS/MS.
Samples were analyzed with the […] LC-MS/MS system (AB Sciex) with a 1200 series HPLC system (Agilent Technologies) including a degasser, an autosampler, and a binary pump. […]
The source temperature was 450 °C. […] Multiple reaction monitoring was used for quantification. […] All compounds evaluated in biological assays were ≥95% pure.

Cc1c(CN(C)C(=O)/C=C/c2cnc3c(c2)CCCC(=O)N3)oc2ccccc12 [compound 10]
whole-cell accumulation: reduced whole-cell accumulation
